Tests used:
[1] = tested on: colorectal cancer cell line DLD1; test: MTT cytotoxic assay, DLD1 cells; format: cell-based
Procedure: (§1) The cytotoxic effects of terpinen-4-ol on cells were measured with the 3-[4,5-dimethylthiazol-2-yl]-2,5 diphenyltetrazolium (MTT) assay. Cells were seeded in 96-well plates (1×10^4 cells/well) in complete medium. After 12-16 hours of growth, different concentrations of each of the described agents were added to the cells in triplicates. 72 h later, the medium was replaced with fresh medium (100 μl per well) containing 1 mg/ml MTT and the cell were further incubated for 2 to 4 h. MTT-formazan crystals were dissolved by the addition of 100 μl extraction buffer. Absorbance at 570 nm and reference wavelength of 690 nm were recorded on an automated microplate reader. The relative number of viable cells compared to control cell line grown under the same condition, but without the added examined agent was determined.

[2] = tested on: colorectal cancer cell line HT29; test: MTT cytotoxic assay, HT29 cells; format: cell-based, Human
Procedure: as §1

[3] = tested on: pancreatic cancer cell line MIA-PACA; test: MTT cytotoxic assay, MIA-PACA cells; format: cell-based, Human
Procedure: as §1

[4] = tested on: pancreatic cancer cell line PANC-1; test: MTT cytotoxic assay, PANC-1 cells; format: cell-based, Human
Procedure: as §1

[5] = tested on: pancreatic cancer cell line COLO 357; test: MTT cytotoxic assay, COLO 357 cells; format: cell-based, Human
Procedure: as §1, with “Human colon adenocarcinoma grade II cells, HT29; Human colon carcinoma cells, HCT116; Human colonic carcinoma cells, COLO 320; Human cell line” for “The cytotoxic effects”, “metastatic pancreatic adenocarcinoma, COLO 357; Human pancreatic carcinoma epithelial-like cell line, PANC-1; and Human pancreatic carcinoma cells, MIA-PACA” for “terpinen-4-ol on cells”, “grown in high-glucose Dulbecco's modified Eagle's medium (DMEM) supplemented” for “measured”, “5% heat-inactivated (HI) fetal bovine serum (FBS), 1% Glutamine and streptomycin/penicillin. […]” for “the 3-[4,5-dimethylthiazol-2-yl]-2,5 diphenyltetrazolium (MTT) assay.”

[6] = tested on: prostate cancer cell line DU145; test: MTT cytotoxic assay, DU145 cells; format: cell-based, Human
Procedure: (§2) Androgen-independent, highly anaplastic prostate cancer cell line with moderate metastatic potential, DU145; Aggressive androgen-independent anaplastic cell line, CL-1; and the colorectal adenocarcinoma DLD1 cells were grown in RPMI-1640 medium supplemented with 5% HI-FBS.
as §1

[7] = tested on: prostate cancer cell line CL-1; test: MTT cytotoxic assay, CL-1 cells; format: cell-based
Procedure: as §2, §1

[8] = tested on: cancer cell lines; test: MTT cytotoxic assay, all cancer cell lines examined (general statements); format: cell-based; conditions: terpinen-4-ol at a concentration of 0.01%
Procedure: Human colon adenocarcinoma grade II cells, HT29; Human colon carcinoma cells, HCT116; Human colonic carcinoma cells, COLO 320; Human cell line of metastatic pancreatic adenocarcinoma, COLO 357; Human pancreatic carcinoma epithelial-like cell line, PANC-1; and Human pancreatic carcinoma cells, MIA-PACA were grown in high-glucose Dulbecco's modified Eagle's medium (DMEM) supplemented with 5% heat-inactivated (HI) fetal bovine serum (FBS), 1% Glutamine and streptomycin/penicillin.
as §2
as §1, with “72 h later, the medium was replaced with fresh medium (100 μl per well) containing 1 mg/ml MTT and the cell were further incubated for 2 to 4 h. MTT-formazan crystals were dissolved by the addition of 100 μl extraction buffer.” left out

[9] = tested on: DLD-1 colorectal cancer cell line xenograft; test: Xenograft model of nude mice bearing DLD-1 colorectal cancer cell line; format: in vivo, athymic nude mice
Procedure: Male athymic nude mice, 6-8 weeks old, (Harlan Laboratories) were housed in sterile cages and handled with aseptic precautions. The mice were fed ad libitum. The therapeutic anti-cancer activity of terpinen-4-ol alone or in combination with additional anti-cancer agents was examined as follows: exponentially growing DLD1 cancer cells were harvested and resuspended at a final concentration of 5×10^6 cells per 0.2 ml PBS per injection. The cells were injected subcutaneously at two sites on the backs of the mice. When tumors were palpable, mice were randomly divided into the treatment groups as described hereinbelow.
At the 9th day after cell injection mice were randomly divided into treatment and control groups and the treatment was started by intra-tumor injection. The control group (5 mice) received 50 μl of a PBS solution with 1% DMSO; the treatment group (5 mice) received 50 μl of PBS solution with 1% DMSO containing 0.1% (v/v) terpinen-4-ol (1A).
Mice were treated every second day. The mice were weighed and tumor volume was measured every three days (with a caliper) starting from the onset of treatment with terpinen-4-ol/control. Tumor volume was calculated as 4/3π·a·b^2. At the end of the experiment, the mice were sacrificed by cervical dislocation after anesthesia and the tumors were excised and measured for volume and weight. Half of each tumor was preserved in −80° C. and the other half was preserved in 4% formaldehyde.
At the 11th day after cell implantation, mice were randomly divided into groups and the treatment started. The chemotherapeutic agent (cetuximub, referred to hereinafter by its trade name Erbitox®) was administered via intraperitoneal (i.p) injection 24 hours before administration of terpinen-4-ol. The terpinen-4-ol was administered directly into the tumor (intra-tumor injection).
Mice were treated every second day for 2 weeks. Mice were weighed and tumor volume was measured with a caliper before each additional treatment. Tumor volume was calculated as 4/3π·a·b^2.

[10] = tested on: human M14 melanoma cells; conditions: Calcabrini A et al., 2004; cited from earlier work
[11] = tested on: drug (adriamicin)-resistant cell line (ADR); conditions: cell line expressing high levels of P-glycoprotein; Calcabrini A et al., 2004; cited from earlier work
[12] = tested on: murine AE17 mesothelioma tumor cell line; conditions: Greay S J et al., 2010; cited from earlier work
[13] = tested on: murine B16 melanoma tumor cell line; conditions: Greay S J et al., 2010; cited from earlier work

For `CC1=CCC(O)(C(C)C)CC1` (stereo not drawn) [terpinen-4-ol, 4-methyl-1-(1-methylethyl)-3-cyclohexen-1-ol], the “concentration dependence of cytotoxic effect” value (shortened to “concentration dependence”) ([1]; 0.005%, 0.01%, 0.02% and 0.10% (v/v), FIG. 2A) was “concentration dependent”, the “dependence of cytotoxic activity on DMSO” value ([1]; 0.01% DMSO added to medium containing 0.01%, 0.05% or 0.10% terpinen-4-ol, FIG. 1A) was “does not depend on the presence of DMSO” and the “concentration dependence” value ([2]; 0.005%, 0.01%, 0.02% and 0.10% (v/v), FIG. 2B) was “concentration dependent”. The “dependence of cytotoxic activity on DMSO” value ([2]; 0.01% DMSO added to medium containing 0.01%, 0.05% or 0.10% terpinen-4-ol, FIG. 1B) was “does not depend on the presence of DMSO”, the “cytotoxic activity in the presence of DMSO compared to without” value ([2]; 0.01% DMSO, FIG. 1B) was “lower activity” and the “concentration dependence” value ([3]; 0.005%, 0.01%, 0.02% and 0.10% (v/v), FIG. 2E) was “concentration dependent”. The “dependence of cytotoxic activity on DMSO” value ([3]; 0.01% DMSO added to medium containing 0.01%, 0.05% or 0.10% terpinen-4-ol, FIG. 1D) was “does not depend on the presence of DMSO”, the “concentration dependence” value ([4]; 0.005%, 0.01%, 0.02% and 0.10% (v/v), FIG. 2F) was “concentration dependent” and the “dependence of cytotoxic activity on DMSO” value ([4]; 0.01% DMSO added to medium containing 0.01%, 0.05% or 0.10% terpinen-4-ol, FIG. 1C) was “does not depend on the presence of DMSO”. The “concentration dependence” value ([5]; 0.005%, 0.01%, 0.02% and 0.10% (v/v), FIG. 2G) was “concentration dependent”, the “dependence of cytotoxic activity on DMSO” value ([5]; 0.01% DMSO added to medium containing 0.01%, 0.05% or 0.10% terpinen-4-ol, FIG. 1E) was “does not depend on the presence of DMSO” and the “concentration dependence” value ([6]; 0.005%, 0.01%, 0.02% and 0.10% (v/v), FIG. 2C) was “concentration dependent”. The “dependence of cytotoxic activity on DMSO” value ([6]; 0.01% DMSO added to medium containing 0.01%, 0.05% or 0.10% terpinen-4-ol, FIG. 1F) was “does not depend on the presence of DMSO”, the “concentration dependence” value ([7]; 0.005%, 0.01%, 0.02% and 0.10% (v/v), FIG. 2D) was “concentration dependent” and the “dependence of cytotoxic activity on DMSO” value ([7]; 0.01% DMSO added to medium containing 0.01%, 0.05% or 0.10% terpinen-4-ol, FIG. 1G) was “does not depend on the presence of DMSO”. The cytotoxic effectiveness [8] was “moderately effective”, the “volume of the implanted tumor” value ([9]; Example 5, intra-tumor injection of 50 μl 0.1% terpinen-4-ol (about 1.65 mg/Kg per injection) every second day, vs control, FIG. 5A) was “significantly reduced” and the “weight of the implanted tumor” value ([9]; Example 5, intra-tumor injection of 50 μl 0.1% terpinen-4-ol (about 1.65 mg/Kg per injection) every second day, vs control, end of assay, FIG. 5B) was “significantly reduced”. The “effect on the tumor growth” value ([9]; Example 6, 0.1% terpinen-4-ol intra-tumor, after two weeks of treatment) was “only minor effect”, the “reduction of tumor size compared to control” value ([9]; Example 6, 50 μl 0.1% terpinen-4-ol intra-tumor every second day, after two weeks of treatment, FIG. 6) was “about 3.7%” and the “effect on cell growth” value [10] was “impair the growth”. For the same molecule, the “effectiveness relative to parental M14 cells” value [11] was “more effective”, the anti-proliferative effect [12] was “significant anti-proliferative effects” and the anti-proliferative effect [13] was “significant anti-proliferative effects”.

Reference: patent US20150320696A1, “COMBINATION THERAPY FOR CANCER” (priority 2012, published 2015)
